Each block holds one molecule with its values, some of them ahead of it.
Experiments:
canine lyase = assay: Inhibition of canine steroid C17,20 lyase (testicular microsomes); format: biochemical, dog; details: substrate, dog lyase
Experimental: (§1) The activity of the present compounds as inhibitors of steroid C17,20 lyase was established using microsomal preparations of the steroid C17,20 lyase enzyme from human or laboratory animal testes. Human testes used for this purpose were obtained from therapeutic orchiectomies. Specifically, microsomes were isolated from human, cynomolgus monkey, dog, rat or athymic nude mouse testicular tissue. The compound to be tested was dissolved in dimethyl sulfoxide and diluted in 0.05M potassium phosphate buffer to give the desired concentrations of the test compound. The potassium phosphate buffer was at pH 7.4 for the human, monkey and dog lyase assays and at pH 7.2 for the rat and athymic nude mouse lyase assays. Assays also contained 1 mM NADPH, 5 mM glucose-6-phosphate, 1 IU/ml glucose-6-phosphate dehydrogenase (an NADPH regenerating system) and microsomal protein in a total volume of 0.2 mL. Control assays contained all components including dimethyl sulfoxide, but with no test compound. All assays were performed in duplicate. […] Radioactivity in the steroid peaks was measured by a Radiomatic Model HS Flo-One detector.
(§2) The enzyme activity for each incubate was calculated from the percent conversion of substrate to products, and the results were expressed as percent inhibition of control. […] The Ki and kinact for time dependent inhibitors were determined by graphical analysis of Kitz-Wilson plots. […]

nude mouse lyase = assay: Inhibition of athymic nude mouse steroid C17,20 lyase (testicular microsomes); format: biochemical; details: substrate, athymic nude mouse enzyme
Experimental: as §1, §2

rat lyase = assay: Inhibition of rat steroid C17,20 lyase (testicular microsomes); format: biochemical; details: substrate, rat enzyme
Experimental: as §1, §2

[1] = substrate: CC(=O)[C@@]1(O)CC[C@H]2[C@@H]3CC=C4C[C@@H](O)CC[C@]4(C)[C@H]3CC[C@@]21C; assay: Inhibition of human steroid C17,20 lyase (testicular microsomes); format: biochemical; details: other: substrate, 34.0 °C
Experimental: as §1, §2

[2] = substrate: CC(=O)[C@@]1(O)CC[C@H]2[C@@H]3CC=C4C[C@@H](O)CC[C@]4(C)[C@H]3CC[C@@]21C; assay: Inhibition of cynomolgus monkey steroid C17,20 lyase (testicular microsomes), time dependent, Kitz-Wilson; format: biochemical; details: other: substrate, 34.0 °C
Experimental: as §1, §2

Molecule: CC(=O)[C@@]1(O)CC[C@H]2[C@@H]3CC=C4C[C@@H](O)CC[C@]4(C)[C@H]3CC[C@@]21C [17α-hydroxypregnenolone, reference compound]
Km (canine lyase): 0.06 µM

Km (nude mouse lyase): 0.03 µM
Km (rat lyase): 0.1 µM
Molecule: CC(=O)[C@@]1(O)CC[C@H]2[C@@H]3CCC4=CC(=O)CC[C@]4(C)[C@H]3CC[C@@]21C [17α-hydroxyprogesterone, reference compound]

B1: human lyase (Homo sapiens) (protein)
chain: MWELVALLLLTLAYLFWPKRRCPGAKYPKSLLSLPLVGSLPFLPRHGHMHNNFFKLQKKYGPIYSVRMGTKTTVIVGHHQLAKEVLIKKGKDFSGRPQMATLDIASNNRKGIAFADSGAHWQLHRRLAMATFALFKDGDQKLEKIICQEISTLCDMLATHNGQSIDISFPVFVAVTNVISLICFNTSYKNGDPELNVIQNYNEGIIDNLSKDSLVDLVPWLKIFPNKTLEKLKSHVKIRNDLLNKILENYKEKFRSDSITNMLDTLMQAKMNSDNGNAGPDQDSELLSDNHILTTIGDIFGAGVETTTSVVKWTLAFLLHNPQVKKKLYEEIDQNVGFSRTPTISDRNRLLLLEATIREVLRLRPVAPMLIPHKANVDSSIGEFAVDKGTEVIINLWALHHNEKEWHQPDQFMPERFLNPAGTQLISPSVSYLPFGAGPRSCIGEILARQELFLIMAWLLQRFDLEVPDDGQLPSLEGIPKVVFLIDSFKVKIKVRQAWREAQAEGST
notes: microsomes were isolated from human, cynomolgus monkey, dog, rat or athymic nude mouse testicular tissue; from tissue; host or cells: human testis microsomes (therapeutic orchiectomies)
Km [1]: 0.30 µM

B2: cynomolgus monkey C17,20 lyase (Macaca fascicularis) (protein)
chain: MWELVALLLLTLAYLFWPKRRCPGAKYPKSLLSLPLVGSLPFLPRHGHMHNNFFKLQKKYGPIYSVRMGTKTTVIVGHHQLAKEVLIKKGKDFSGRPQVTTLDILSNNRKGIAFADYGAHWQLHRRLAMATFALFKDGDQKLEKIICQEISTLCDMLATHNGQTIDISFPVFVAITNVISLICFNISYKNGDPELKIVHNYNEGIIDSLGKESLVDLFPWLKVFPNKTLEKLKRHVKTRNDLLTKIFENYKEKFHSDSITNMLDVLMQAKMNSDNGNAGPDQDSELLSDNHILTTIGDIFGAGVETTTSVVKWIVAFLLHNPQVKKKLYEEIDQNVGFSRTPTISDRNRLLLLEATIREVLRIRPVAPMLIPHKANVDSSIGEFAVDKGTHVIINLWALHHNEKEWHQPDQFMPERFLNPAGTQLISPSLSYLPFGAGPRSCIGEILARQELFLIMAWLLQRFDLEVPDDGQLPSLEGNPKVVFLIDSFKVKIKVRQAWREAQAEGST
notes: microsomes were isolated from human, cynomolgus monkey, dog, rat or athymic nude mouse testicular tissue; from tissue; host or cells: cynomolgus monkey testis microsomes
Km [2]: 0.11 µM

Source: patent publication US5486511A, “4-amino-17β-(cyclopropyloxy)androst-4-en-3-one, 4-amino-17β-(cyclopropylamino)androst-4-en-3-one and related compounds as C17-20 lyase and 5α-reductase” (Merrell Dow Pharmaceuticals Inc., priority 1994, dated 1996)
